According to US20260293896A1, “PLANT GROWTH REGULATOR, PLANT GROWTH ACCELERATION METHOD, OR PLANT GROWTH-REGULATING PRODUCT” (KUREHA CORPORATION, priority 2022, published 2026):

What follows are compounds tested on rapeseed (assay: Evaluation Example 6: Comparison of Elongated Plant Height of Rapeseed). Conditions: petri dish, 5 mL, 25° C, 7th day after seeding, EGT 0.5 mM and/or component (A) 0.5 mM.
Format: in vivo
Procedure: The plant growth regulators of Examples 14 to 17 and Comparative Examples 19 to 23 were prepared so as to attain the concentrations indicated in Table 6 below. EGT, Leu, Val, Tyr and Ser were commercially available products, and pure water was used as a solvent.
(§1) Into a 9 cm petri dish on which filter paper was spread, 5 mL of the plant growth regulator was added. Ten seeds of rapeseed were sown per one petri dish. In a growth chamber set at room temperature of 25° C., the light period was 16 hours and the dark period was 8 hours. The light conditions were set such that the light intensity was 5000 lx in the central part under irradiation with the fluorescent lamp.
(§2) The plant height of the rapeseed on the 7th day after seeding was evaluated.

| SMILES | Elongated plant height, ratio to untreated control |
| --- | --- |
| C[N+](C)(C)[C@@H](Cc1c[nH]c(=S)[nH]1)C(=O)[O-] [Comparative Example 19, L-(+)-ergothioneine] | 1.1 |
| CC(C)C[C@H](N)C(=O)O [compound 20, L-leucine] | 1.0 |
| CC(C)[C@H](N)C(=O)O [compound 21, L-valine] | 1.0 |
| N[C@@H](Cc1ccc(O)cc1)C(=O)O [compound 22, L-tyrosine] | 1.0 |
| N[C@@H](CO)C(=O)O [compound 23, L-serine] | 1.0 |

What follows are compounds tested on tomato (Regina) (assay: Evaluation Example 14: Comparison of Number of Fruits and Total Fruit Weight of Tomato). Conditions: 50 mL on 32nd, 34th, 36th days, fruits ≥20 mm collected 75th day after seeding, EGT 0.1 mM and/or Arg 0.1 mM.
Format: in vivo
Procedure: The plant growth regulators of Example 35 and Comparative Examples 48 and 49 were prepared so as to attain the concentrations indicated in Table 14 below. EGT and Arg were commercially available products, and pure water was used as a solvent.
In a plastic pot having a diameter of 135 mm and a height of 110 mm, 1 kg of granular soil (Kumiai horticultural soil) was placed, and one individual tomato (Regina) was sown per one pot.
The tomato was managed in a greenhouse set at room temperature of 25° C. Chemical treatment was started 5 weeks after seeding. More specifically, on the 32nd, 34th, and 36th days after seeding, 50 mL of the plant growth regulator was added.
On the 75th day after seeding, fruits having a diameter of 20 mm or greater were collected, and the number and total weight of the collected fruits were evaluated.

| SMILES | Number of fruits, ratio to untreated control | Total fruit weight, ratio to untreated control |
| --- | --- | --- |
| C[N+](C)(C)[C@@H](Cc1c[nH]c(=S)[nH]1)C(=O)[O-] [Comparative Example 48, L-(+)-ergothioneine] | 1.2 | 1.2 |
| N=C(N)NCCC[C@H](N)C(=O)O [Comparative Example 49, L-arginine] | 1.0 | 0.9 |

Each compound was assayed on wheat (assay: Evaluation Example 10: Comparison of Elongated Plant Height of Wheat). Conditions: petri dish, 5 mL, 24° C, 7th day after seeding, EGT 0.5 mM and/or component (A) 0.5 mM.
Format: in vivo
Procedure: The plant growth regulators of Examples 23 to 26 and Comparative Examples 32 to 36 were prepared so as to attain the concentrations indicated in Table 10 below. EGT, GABA, ornithine, carnitine and maleic acid were commercially available products, and pure water was used as a solvent.
(§3) Into a 9 cm petri dish on which filter paper was spread, 5 mL of the plant growth regulator was added. Ten seeds of wheat were sown per one petri dish. In a thermostatic chamber set at room temperature of 24° C., the light period was 16 hours and the dark period was 8 hours. The light conditions were set using a fluorescent lamp (PLANT FLEC, 40 W LED fluorescent lamp for plant growth, electric bulb color, available from Nippon Medical and Chemical Instruments Co., Ltd.) such that the light intensity was 5000 lx in the central part under irradiation with the fluorescent lamp.
(§4) The plant height of the wheat on the 7th day after seeding was evaluated.

| SMILES | Elongated plant height, ratio to untreated control |
| --- | --- |
| C[N+](C)(C)[C@@H](Cc1c[nH]c(=S)[nH]1)C(=O)[O-] [Comparative Example 32, L-(+)-ergothioneine] | 1.1 |
| NCCCC(=O)O [compound 33, γ-aminobutyric acid] | 1.0 |
| NCCC[C@H](N)C(=O)O [compound 34, ornithine] | 0.9 |
| C[N+](C)(C)CC(O)CC(=O)[O-] (stereo not shown) [compound 35, carnitine] | 0.9 |
| O=C(O)/C=C\C(=O)O [compound 36, maleic acid] | 0.9 |

The compounds below were run on rapeseed (assay: Evaluation Example 5: Comparison of Elongated Plant Height of Rapeseed). Conditions: petri dish, 5 mL, 25° C, 7th day after seeding, EGT 0.5 mM and/or component (A) 0.5 mM.
Format: in vivo
Procedure: The plant growth regulators of Examples 9 to 13 and Comparative Examples 13 to 18 were prepared so as to attain the concentrations indicated in Table 5 below. EGT, Gln, Trp, Met, Phe and acetic acid were commercially available products, and pure water was used as a solvent.
as §1, §2

| SMILES | Elongated plant height, ratio to untreated control |
| --- | --- |
| C[N+](C)(C)[C@@H](Cc1c[nH]c(=S)[nH]1)C(=O)[O-] [Comparative Example 13, L-(+)-ergothioneine] | 1.1 |
| NC(=O)CC[C@H](N)C(=O)O [compound 14, L-glutamine] | 1.1 |
| N[C@@H](Cc1c[nH]c2ccccc12)C(=O)O [compound 15, L-tryptophan] | 0.5 |
| CSCC[C@H](N)C(=O)O [compound 16, L-methionine] | 1.0 |
| N[C@@H](Cc1ccccc1)C(=O)O [compound 17, L-phenylalanine] | 1.1 |
| CC(=O)O [compound 18, acetic acid] | 1.1 |

These compounds were tested on Arabidopsis thaliana (Col-0) (assay: Evaluation Example 2: Comparison of Seed Yield of Arabidopsis thaliana). Conditions: 50 mL added on 8th, 10th, 12th, 14th days after seeding; harvest 89th day; EGT 1 mM and/or component (A) 0.1 mM.
Format: in vivo
Procedure: The plant growth regulators of Examples 3 to 5 and Comparative Examples 4 to 7 were prepared so as to attain the concentrations indicated in Table 2 below. EGT, citric acid, GB and GSSG were commercially available products, and pure water was used as a solvent.
One individual Arabidopsis thaliana (Col-0) was sown in a plastic pot having a diameter of 60 mm and a height of 55 mm. Plastic deep dishes each having a diameter of 160 mm and a height of 28 mm were prepared, and six pots were respectively placed therein. As soil, 45 mL of vermiculite, 22.5 mL of granular soil (Kumiai horticultural soil), and 22.5 mL of vermiculite were placed in the pot in this order.
In a growth chamber set at room temperature of 22° C., the light period was 16 hours and the dark period was 8 hours. The light conditions were set such that the light intensity was 5000 lx in the central part under irradiation with the fluorescent lamp. Water supply was conducted from the bottom, and the water level was set at about 5 mm. Chemical treatment was started […]. More specifically, on the 8th, 10th, 12th, and 14th days after seeding, 50 mL of the plant growth regulator was added instead of water supply.
On the 89th day after seeding, seeds were harvested, and the seed yield was evaluated.

| SMILES | Seed yield, ratio to untreated control |
| --- | --- |
| C[N+](C)(C)[C@@H](Cc1c[nH]c(=S)[nH]1)C(=O)[O-] [Comparative Example 4, L-(+)-ergothioneine] | 1.2 |
| O=C(O)CC(O)(CC(=O)O)C(=O)O [Comparative Example 5, citric acid] | 0.8 |
| C[N+](C)(C)CC(=O)[O-] [compound 6, glycine betaine] | 1.0 |

These compounds were tested on wheat (assay: Evaluation Example 17: Comparison of Elongated Plant Height of Wheat). Conditions: petri dish, 5 mL, 24° C, 7th day after seeding, EGT 1 mM and/or uracil 0.01, 0.1 or 10 mM.
Format: in vivo
Procedure: The plant growth regulators of Examples 39 to 41 and Comparative Examples 55 to 58 were prepared so as to attain the concentrations indicated in Table 17 below. EGT and uracil were commercially available products, and pure water was used as a solvent.
as §3, §4

| SMILES | Elongated plant height, ratio to untreated control |
| --- | --- |
| C[N+](C)(C)[C@@H](Cc1c[nH]c(=S)[nH]1)C(=O)[O-] [Comparative Example 55, L-(+)-ergothioneine] | 1.1 |
| O=c1cc[nH]c(=O)[nH]1 [compound 56, uracil] | 1.1 |
| O=c1cc[nH]c(=O)[nH]1 [compound 57, uracil] | 1.0 |
| O=c1cc[nH]c(=O)[nH]1 [compound 58, uracil] | 1.0 |

Each compound was assayed on wheat (assay: Evaluation Example 11: Comparison of Elongated Plant Height of Wheat). Conditions: petri dish, 5 mL, 24° C, 7th day after seeding, EGT 0.5 mM and/or component (A) 0.1 mM (vitamin D2 0.01 mM).
Format: in vivo
Procedure: The plant growth regulators of Examples 27 to 31 and Comparative Examples 37 to 42 were prepared so as to attain the concentrations indicated in Table 11 below. EGT, Met, His, Cys, 5-ALA and vitamin D2 were commercially available products, and pure water was used as a solvent.
as §3, §4

| SMILES | Elongated plant height, ratio to untreated control |
| --- | --- |
| C[N+](C)(C)[C@@H](Cc1c[nH]c(=S)[nH]1)C(=O)[O-] [Comparative Example 37, L-(+)-ergothioneine] | 1.1 |
| CSCC[C@H](N)C(=O)O [compound 38, L-methionine] | 0.8 |
| N[C@@H](Cc1c[nH]cn1)C(=O)O [compound 39, L-histidine] | 1.0 |
| N[C@@H](CS)C(=O)O [compound 40, L-cysteine] | 1.0 |
| NCC(=O)CCC(=O)O [compound 41, 5-aminolevulinic acid] | 0.9 |
| C=C1CC[C@H](O)C/C1=C/C=C1\CCC[C@]2(C)[C@@H]([C@H](C)/C=C/[C@H](C)C(C)C)CC[C@@H]12 [compound 42, vitamin D2] | 0.9 |

These compounds were tested on radish (Akamaru Hatsuka) (assay: Evaluation Example 13: Comparison of Aboveground Part Weight and Underground Part Weight of Radish). Conditions: 50 mL on 15th, 17th, 20th days, evaluated 27th day after seeding, EGT 0.5 mM and/or Glu 0.5 mM.
Format: in vivo
Procedure: The plant growth regulators of Example 34 and Comparative Examples 46 and 47 were prepared so as to attain the concentrations indicated in Table 13 below. EGT and Glu were commercially available products, and pure water was used as a solvent.
In a plastic pot having a diameter of 105 mm and a height of 90 mm, 450 g of granular soil (Kumiai horticultural soil) was placed, and one individual radish (Akamaru Hatsuka) was sown per one pot.
The radish was managed in a greenhouse set at room temperature of 25° C. Chemical treatment was started 2 weeks after seeding. More specifically, on the 15th, 17th, and 20th days after seeding, 50 mL of the plant growth regulator was added.
On the 27th day after seeding, the aboveground part weight and underground part weight were evaluated.

| SMILES | Aboveground part weight, ratio to untreated control | Underground part weight, ratio to untreated control |
| --- | --- | --- |
| C[N+](C)(C)[C@@H](Cc1c[nH]c(=S)[nH]1)C(=O)[O-] [Comparative Example 46, L-(+)-ergothioneine] | 1.1 | 1.1 |
| N[C@@H](CCC(=O)O)C(=O)O [Comparative Example 47, L-glutamic acid] | 1.1 | 1.1 |
